Measurements as given in PubChem BioAssay AID1259411 (Chemical Carcinogenesis Research Information System (CCRIS), 2018).
The source made the active and inactive calls. No rule for the calls is given here.

Tested on: rodent carcinogenicity bioassays, tumor incidence
Experiment: CCRIS carcinogenicity studies
Details: Dose: 0, Dose: 0
Outline: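 NCI-built, expert-reviewed records of carcinogenicity and related test outcomes (mutagenicity, tumor promotion/inhibition) compiled from published and report sources, historical span 1985-2011, not updated.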

O=C1CN(/N=C/c2ccc([N+](=O)[O-])o2)C(=O)N1
carcinogen call (Species: MOUSE, Strain/Sex: B6C3F1/FEMALE, Route: ORAL, 1300, 2500 PPM IN FEED FOR 103 WK (STUDY DURATION: 105 WK), 1300, 2500 PPM IN FEED FOR 103 WK (STUDY DURATION: 105 WK), Tumor Site: Type of Lesion: OVARY: TUBULAR ADENOMA, MIXED TUMOR (BENIGN)): active; positive | carcinogen call (Species: MOUSE, Strain/Sex: B6C3F1/MALE, Route: ORAL, 1300, 2500 PPM IN FEED FOR 103 WK (STUDY DURATION: 105 WK), 1300, 2500 PPM IN FEED FOR 103 WK (STUDY DURATION: 105 WK)): inactive; negative | carcinogen call (Species: MOUSE, Strain/Sex: BDF1/FEMALE, Route: ORAL, 0.075, 0.3% IN DIET BEGINNING AT 9 WK OF AGE AND CONTINUING FOR DURATION OF STUDY (STUDY DURATION: 24 MO), 0.075, 0.3% IN DIET BEGINNING AT 9 WK OF AGE AND CONTINUING FOR DURATION OF STUDY (STUDY DURATION: 24 MO)): inactive; negative | carcinogen call (Species: MOUSE, Strain/Sex: BDF1/MALE, Route: ORAL, 0.075, 0.3% IN DIET BEGINNING AT 9 WK OF AGE AND CONTINUING FOR DURATION OF STUDY (STUDY DURATION: 24 MO), 0.075, 0.3% IN DIET BEGINNING AT 9 WK OF AGE AND CONTINUING FOR DURATION OF STUDY (STUDY DURATION: 24 MO)): inactive; negative | carcinogen call (Species: MOUSE, Strain/Sex: ICR/MALE, FEMALE, Route: TRANSPLACENTAL, 75 UG/G ADMINISTERED SUBCUTANEOUSLY TO MOTHERS ON DAYS 13, 15 AND 17 OF GESTATION (STUDY DURATION: 33 WK), Tumor Site: Type of Lesion: LUNG: PAPILLARY ADENOMA): active; positive | carcinogen call (Species: MOUSE, Strain/Sex: SWISS/FEMALE, Route: ORAL, 0.03% IN DIET FOR 441 D, THEN 0.04% IN DIET FOR DURATION OF STUDY (TOTAL AVERAGE DOSE: 58.76 MG/KG) (STUDY DURATION:, 0.03% IN DIET FOR 441 D, THEN 0.04% IN DIET FOR DURATION OF STUDY (TOTAL AVERAGE DOSE: 58.76 MG/KG) (STUDY DURATION:): inactive; negative | carcinogen call (Species: MOUSE, Strain/Sex: SWISS/FEMALE, Route: ORAL, 0.06% IN DIET FOR 441 D, THEN 0.075% IN DIET FOR DURATION OF STUDY (TOTAL AVERAGE DOSE: 115.59 MG/KG) (STUDY DURATION, 0.06% IN DIET FOR 441 D, THEN 0.075% IN DIET FOR DURATION OF STUDY (TOTAL AVERAGE DOSE: 115.59 MG/KG) (STUDY DURATION): inactive; negative | carcinogen call (Species: MOUSE, Strain/Sex: SWISS/FEMALE, Route: ORAL, 0.13% IN DIET FOR 441 D, THEN 0.155% IN DIET FOR DURATION OF STUDY (TOTAL AVERAGE DOSE: 224.07 MG/KG) (STUDY DURATION, 0.13% IN DIET FOR 441 D, THEN 0.155% IN DIET FOR DURATION OF STUDY (TOTAL AVERAGE DOSE: 224.07 MG/KG) (STUDY DURATION): inactive; negative | carcinogen call (Species: MOUSE, Strain/Sex: SWISS/MALE, Route: ORAL, 0.03% IN DIET FOR 441 D, THEN 0.04% IN DIET FOR DURATION OF STUDY (TOTAL AVERAGE DOSE: 43.63 MG/KG) (STUDY DURATION:, 0.03% IN DIET FOR 441 D, THEN 0.04% IN DIET FOR DURATION OF STUDY (TOTAL AVERAGE DOSE: 43.63 MG/KG) (STUDY DURATION:): inactive; negative | carcinogen call (Species: MOUSE, Strain/Sex: SWISS/MALE, Route: ORAL, 0.06% IN DIET FOR 441 D, THEN 0.075% IN DIET FOR DURATION OF STUDY (TOTAL AVERAGE DOSE: 83.59 MG/KG) (STUDY DURATION:, 0.06% IN DIET FOR 441 D, THEN 0.075% IN DIET FOR DURATION OF STUDY (TOTAL AVERAGE DOSE: 83.59 MG/KG) (STUDY DURATION:): inactive; negative | carcinogen call (Species: MOUSE, Strain/Sex: SWISS/MALE, Route: ORAL, 0.13% IN DIET FOR 441 D, THEN 0.155% IN DIET FOR DURATION OF STUDY (TOTAL AVERAGE DOSE: 181.14 MG/KG) (STUDY DURATION, 0.13% IN DIET FOR 441 D, THEN 0.155% IN DIET FOR DURATION OF STUDY (TOTAL AVERAGE DOSE: 181.14 MG/KG) (STUDY DURATION, Tumor Site: Type of Lesion: HEMATOPOIETIC SYSTEM: MALIGNANT LYMPHOMA): active; positive | carcinogen call (Species: RAT, Strain/Sex: F344/FEMALE, Route: ORAL, 600, 1300 PPM IN FEED FOR 103 WK (STUDY DURATION: 105 WK), 600, 1300 PPM IN FEED FOR 103 WK (STUDY DURATION: 105 WK)): inactive; negative | carcinogen call (Species: RAT, Strain/Sex: F344/MALE, Route: ORAL, 0.187% IN DIET FOR 104 WK (STUDY DURATION: 104 WK)): inactive; negative | carcinogen call (Species: RAT, Strain/Sex: F344/MALE, Route: ORAL, 1300, 2500 PPM IN FEED FOR 103 WK (STUDY DURATION: 105 WK), 1300, 2500 PPM IN FEED FOR 103 WK (STUDY DURATION: 105 WK), Tumor Site: Type of Lesion: KIDNEY: TUBULAR ADENOMA OR CARCINOMA, SUBCUTANEOUS TISSUE: FIBROMA, FIBROMA OR FIBROSARCOMA): active; positive | carcinogen call (Species: RAT, Strain/Sex: SPRAGUE-DAWLEY/FEMALE, Route: ORAL, 0.188% IN DIET FOR 2 YR (STUDY DURATION: 2 YR), Tumor Site: Type of Lesion: MAMMARY GLAND: FIBROADENOMA): active; positive | carcinogen call (Species: RAT, Strain/Sex: STRAIN-CD/FEMALE, Route: ORAL, 12, 24, 48 MG/KG BW IN DIET FOR 24 MO (STUDY DURATION: 24 MO), 12, 24, 48 MG/KG BW IN DIET FOR 24 MO (STUDY DURATION: 24 MO)): inactive; negative | carcinogen call (Species: RAT, Strain/Sex: STRAIN-CD/MALE, Route: ORAL, 12, 24, 48 MG/KG BW IN DIET FOR 24 MO (STUDY DURATION: 24 MO), 12, 24, 48 MG/KG BW IN DIET FOR 24 MO (STUDY DURATION: 24 MO)): inactive; negative

Nc1ccc(N(CCO)CCO)cc1
carcinogen call (Species: RAT, Strain/Sex: F344/FEMALE, Route: ORAL, 300, 1000, 3000 PPM IN DIET FOR 104 WK (STUDY DURATION: 104 WK), 300, 1000, 3000 PPM IN DIET FOR 104 WK (STUDY DURATION: 104 WK)): inactive; negative | carcinogen call (Species: RAT, Strain/Sex: F344/MALE, Route: ORAL, 300, 1000, 3000 PPM IN DIET FOR 104 WK (STUDY DURATION: 104 WK), 300, 1000, 3000 PPM IN DIET FOR 104 WK (STUDY DURATION: 104 WK)): inactive; negative

O=c1cc[nH]c(=O)[nH]1
carcinogen call (Species: MOUSE, Strain/Sex: B6C3F1/FEMALE, Route: ORAL, 3% IN DIET FOR WK 1-6 OF STUDY THEN 0, 2.5% IN DIET FOR WK 7-96 (STUDY DURATION: 96 WK), 3% IN DIET FOR WK 1-6 OF STUDY THEN 0, 2.5% IN DIET FOR WK 7-96 (STUDY DURATION: 96 WK), Tumor Site: Type of Lesion: URINARY BLADDER: TRANSITIONAL CELL CARCINOMA): active; positive | carcinogen call (Species: MOUSE, Strain/Sex: B6C3F1/MALE, Route: ORAL, 3% IN DIET FOR WK 1-6 OF STUDY THEN 0, 2.5% IN DIET FOR WK 7-96 (STUDY DURATION: 96 WK), 3% IN DIET FOR WK 1-6 OF STUDY THEN 0, 2.5% IN DIET FOR WK 7-96 (STUDY DURATION: 96 WK)): inactive; negative | carcinogen call (Species: RAT, Strain/Sex: F344/FEMALE, Route: ORAL, 3% IN DIET FOR 104 WK (STUDY DURATION: 104 WK), Tumor Site: Type of Lesion: URINARY BLADDER: TRANSITIONAL CELL CARCINOMA): active; positive | carcinogen call (Species: RAT, Strain/Sex: F344/MALE, Route: ORAL, 3% IN DIET FOR 104 WK (STUDY DURATION: 104 WK), Tumor Site: Type of Lesion: URINARY BLADDER: TRANSITIONAL CELL PAPILLOMA, TRANSITIONAL CELL CARCINOMA, RENAL PELVIS: PAPILLOMA, CARCINOMA): active; positive

COc1nc(C)nc(NC(=O)NS(=O)(=O)c2ccccc2Cl)n1
carcinogen call (Species: Rat, Strain/Sex: CD/Female (50/group), Route: Oral, 100, 500, 2,500 ppm in diet for 2 yr, 100, 500, 2,500 ppm in diet for 2 yr): inactive; negative (study details not given in source; purity 92-95%) | carcinogen call (Species: Rat, Strain/Sex: CD/Male (50/group), Route: Oral, 100, 500, 2,500 ppm in diet for 2 yr, 100, 500, 2,500 ppm in diet for 2 yr): inactive; negative (study details not given in source; purity 92-95%)
